Consider 1 substance from US5776886A, “Intravaginal preparation containing physiologically active peptide” (Teikoku Seiyaku Kabushiki Kaisha, priority 1993, dated 1998).

This test has as its system calcium level in the serum. As to the kind of experiment: Experiment 1: serum calcium reduction after human calcitonin intravaginal suppository, sucrose fatty acid ester plus citric acid vs each alone. Type of test: in vivo, Wistar rats. Particulars: for Reduction rate (%) of calcium level in the serum: intravaginal suppository 20 μg, ovariectomized rats. On the procedure:
To the mixture was added a commercially available base for intravaginal preparation; Witepsol S-55 (which is prepared from Witepsol E-85 so as to give a final intravaginal suppository having a melting point of 36.5° C., manufactured by Hils Co., Ltd., former Diamit Novel Co., Ltd) which was homogenized by previously warming and stirring thereof so as to give an intravaginal suppository with the total weight of 5.00 g. […] The mixture was poured into a tube (inside diameter: about 3 mm) made of teflon at about 40° C., cooled to solidify, and taken out from the tube. The solidified mixture was cut into pieces (weight: 50 mg) to give intravaginal suppositories for rats containing human calcitonin (20 μg/each). There were also obtained two kinds of intravaginal suppositories prepared by adding citric acid (50 mg) only, and prepared by adding a sucrose fatty acid ester (100 mg) only, likewise. There were obtained intravaginal suppositories containing only human calcitonin without citric acid nor a sucrose fatty acid ester, likewise, which are used as control.
An intravaginal suppository was administered into the rat's vagina, and the blood was collected periodically (2, 4 and 6 hours after administration of the test preparation).
The serum was separated, and the calcium level in the serum was determined by using a kit for determination of calcium (Calcium C Test Wako; manufactured by Wako Pure Chemical Industries, Ltd.) (n=3).

For the substance Human calcitonin, the “Reduction rate (%) of calcium level in the serum” value (Control: only human calcitonin, no citric acid nor sucrose fatty acid ester, 2 hr) is reported as 2.6%; the “Reduction rate (%) of calcium level in the serum” value (Control: only human calcitonin, no citric acid nor sucrose fatty acid ester, 4 hr) amounted to 2.2%; the “Reduction rate (%) of calcium level in the serum” value (Control: only human calcitonin, no citric acid nor sucrose fatty acid ester, 6 hr) worked out at 3.8%; the “Reduction rate (%) of calcium level in the serum” value (added: citric acid only, 2 hr) amounted to 9.5%; the “Reduction rate (%) of calcium level in the serum” value (added: citric acid only, 4 hr) is 8.0%; the “Reduction rate (%) of calcium level in the serum” value (added: citric acid only, 6 hr) came out at 5.7%. For the same substance, the “Reduction rate (%) of calcium level in the serum” value by setting is: (added: sucrose fatty acid ester (S-970) and citric acid, base Witepsol S-55, 2 hr) 14.9%; (added: sucrose fatty acid ester (S-970) and citric acid, base Witepsol S-55, 4 hr) 19.5%; (added: sucrose fatty acid ester (S-970) and citric acid, base Witepsol S-55, 6 hr) 11.1%; (added: sucrose fatty acid ester (S-970) only, 2 hr) 10.6%; (added: sucrose fatty acid ester (S-970) only, 4 hr) 10.5%; (added: sucrose fatty acid ester (S-970) only, 6 hr) 10.7%. Further, the “calcitonin-absorption promotion effects, on the basis of the reduction rate of the calcium level in the serum” value (combination of sucrose fatty acid ester and citric acid compared with either only) is “far superior”.
